Patent US12360106B2, “Photochromic xanthene fluorophores and their utility in live-cell imaging beyond the diffraction limit” (HOWARD HUGHES MEDICAL INSTITUTE, priority 2017, dated 2025)

Test: water solubility (comparative statement)
Type: physicochemical
Conditions: compared to PC-JF549-NHS

COCCOCCOCCOCCNC(=O)c1cc2ccc(N3C(=O)c4ccc(C(=O)ON5C(=O)CCC5=O)cc4C34c3ccc(N5CCC5)cc3[Si](C)(C)c3cc(N5CCC5)ccc34)cc2oc1=O [PC-JF646-PEG-NHS, 2,5-dioxopyrrolidin-1-yl 2′-(3-((2,5,8,11-tetraoxatridecan-13-yl)carbamoyl)-2-oxo-2H-chromen-7-yl)-3,7-di(azetidin-1-yl)-5,5-dimethyl-3′-oxo-5H-spiro[dibenzo[b,e]siline-10,1′-isoindoline]-6′-carboxylate]
water solubility: better water solubility
